Patent US10112911B2, “Substituted cyanoguanidines as oral anti-virals” (Abbvie Inc, priority 2012, dated 2018)
Where a name gives a salt, the structure may show the parent alone.

The compounds below were run on RSV (Group A, Long Strain) (assay: Cytopathetic effect (CPE) protection antiviral assay, MTT readout). Details: human respiratory syncytial virus, HEp-2, 96 h, HEp-2 cells, 0.2 MOI RSV, 4 days incubation, protection from CPE (Table 1); read-out: RSV EC50.
Format: cell-based
Method: HEp-2 cells and RSV (Group A, Long Strain) were obtained from the American Type Culture Collection (Manassas, Va.).
A cytopathetic effect (CPE) protection assay was performed to determine the ability of a compound to protect the cells from viral infection and thus the CPE induced by viral infection. 96-Well plates were first seeded with […] per well in Dulbecco's modified Eagle's medium (DMEM) containing 10% fetal bovine serum (FBS). One day after the cells were seeded, they were preincubated with serial dilutions of compounds prepared in 100 μL assay medium (DMEM mixed with F12 medium at a 1:1 ratio, supplemented with 2% FBS and 1 mM sodium pyruvate) for 1 hour at 37° C. 100 μL of assay medium containing 0.2 multiplicity of infection (MOI) of RSV was then added to each well of cells. In addition to wells containing infected cells incubated with compounds, each plate also contained replicates of two kinds of controls: (1) Virus control contained cells infected with 0.2 MOI of RSV in assay medium, (2) Uninfected cell control contained cells incubated with assay medium only. After 4 days of incubation at 37° C., the viability of cells was assessed using MTT (Thiazolyl blue tetrazolium bromide, Sigma). A stock solution of MTT, at a concentration of 4 mg/mL in phosphate-buffered saline, was added to all wells at 25 μL per well. Plates were further incubated for 4 hours, and each well was then treated with 50 μL of a solution containing 20% sodium dodecyl sulfate (SDS) and 0.02 N HCl. After an overnight incubation, the plates were measured on a BioTek® microtiter plate reader at wavelengths of 570 nm and 650 nm. The MTT detection is based on the fact that viable (uninfected) cells can reduce the tetrazolium salts into colored formazan products, which can then be quantitated by spectrometry. Based on the spectrometric absorbance of each sample, the percent of protection from CPE, which is an indicator of protection from viral infection, can be calculated for each compound and the 50% effective concentrations (EC50) can be calculated using a nonlinear regression curve fitting equation provided by the GraphPad Prism® 4 software.
Compounds were tested to determine both their antiviral and toxicity to determine their therapeutic window. Determination of the EC50 and TD50 of these active compounds were repeated one additional time to confirm the window.

| SMILES | EC50 [µM] |
| --- | --- |
| CC(C)C1CN(c2cnc3ccccc3n2)CCN1/C(=N\C#N)Nc1ccc2c(c1)OCO2 (stereo not drawn) [Example 1.14, N-(1,3-benzodioxol-5-yl)-N′-cyano-2-isopropyl-4-(quinoxalin-2-yl)piperazine-1-carboximidamide] | > 10 |
| CC(C)C1CN(c2cnc3ccccc3n2)CCN1/C(=N\C#N)Nc1ccc(Cl)cc1 (stereo not drawn) [Example 1.15, N-(4-chlorophenyl)-N′-cyano-2-isopropyl-4-(quinoxalin-2-yl)piperazine-1-carboximidamide] | > 10 |
| Cc1cccc(C)c1N/C(=N/C#N)N1CCN(c2cnc3ccccc3n2)CC1C(C)C (stereo not drawn) [Example 1.17, N′-cyano-N-(2,6-dimethylphenyl)-2-isopropyl-4-(quinoxalin-2-yl)piperazine-1-carboximidamide] | 0.54 |
| COc1ccccc1N/C(=N/C#N)N1CCN(c2cnc3ccccc3n2)CC1C(C)C (stereo not drawn) [Example 1.18, N′-cyano-2-isopropyl-N-(2-methoxyphenyl)-4-(quinoxalin-2-yl)piperazine-1-carboximidamide] | 1.16 |
| CC(C)C1CN(c2cnc3ccccc3n2)CCN1/C(=N\C#N)Nc1ccccc1F (stereo not drawn) [Example 1.21, N′-cyano-N-(2-fluorophenyl)-2-isopropyl-4-(quinoxalin-2-yl)piperazine-1-carboximidamide] | 2.07 |
| Cc1cccc(N/C(=N/C#N)N2CCN(c3cnc4ccccc4n3)CC2C(C)C)c1 (stereo not drawn) [Example 1.22, N′-cyano-2-isopropyl-N-(3-methylphenyl)-4-(quinoxalin-2-yl)piperazine-1-carboximidamide] | 0.4 |
| CC(C)C1CN(c2cnc3ccccc3n2)CCN1/C(=N\C#N)Nc1cccc(Cl)c1 (stereo not drawn) [Example 1.28, N-(3-chlorophenyl)-N′-cyano-2-isopropyl-4-(quinoxalin-2-yl)piperazine-1-carboximidamide] | 3.1 |
| Cc1ccc(F)cc1N/C(=N/C#N)N1CCN(c2cnc3ccccc3n2)CC1C(C)C (stereo not drawn) [Example 1.31, N′-cyano-N-(5-fluoro-2-methylphenyl)-2-isopropyl-4-(quinoxalin-2-yl)piperazine-1-carboximidamide] | 2 |
| Cc1cccc(F)c1N/C(=N/C#N)N1CCN(c2cnc3ccccc3n2)CC1C(C)C (stereo not drawn) [Example 1.33, N′-cyano-N-(2-fluoro-6-methylphenyl)-2-isopropyl-4-(quinoxalin-2-yl)piperazine-1-carboximidamide] | 0.3 |
| Cc1cc(F)c(F)cc1N/C(=N/C#N)N1CCN(c2cnc3ccccc3n2)CC1C(C)C (stereo not drawn) [Example 1.34, N′-cyano-N-(4,5-difluoro-2-methylphenyl)-2-isopropyl-4-(quinoxalin-2-yl)piperazine-1-carboximidamide] | > 3.1 |
| CC(C)C1CN(c2cnc3ccccc3n2)CCN1/C(=N\C#N)Nc1cc(C(C)(C)C)nn1C (stereo not drawn) [Example 1.36, N-(3-tert-butyl-1-methyl-1H-pyrazol-5-yl)-N′-cyano-2-isopropyl-4-(quinoxalin-2-yl)piperazine-1-carboximidamide] | > 6.6 |
| Cc1ccccc1N/C(=N/C#N)N1CCN(c2cnc3ccccc3n2)CC1CC(C)C (stereo not drawn) [Example 1.37, N′-cyano-2-isobutyl-N-(2-methylphenyl)-4-(quinoxalin-2-yl)piperazine-1-carboximidamide] | 0.4 |
| Cc1cccc(N/C(=N/C#N)N2CCN(c3cnc4ccccc4n3)CC2CC(C)C)c1 (stereo not drawn) [Example 1.38, N′-cyano-2-isobutyl-N-(3-methylphenyl)-4-(quinoxalin-2-yl)piperazine-1-carboximidamide] | > 3.1 |
| CC(C)CC1CN(c2cnc3ccccc3n2)CCN1/C(=N\C#N)Nc1cccc(F)c1 (stereo not drawn) [Example 1.40, N′-cyano-N-(3-fluorophenyl)-2-isobutyl-4-(quinoxalin-2-yl)piperazine-1-carboximidamide] | > 10 |

Results, then the compound that gave them:

| EC50 [µM] | SMILES |
| --- | --- |
| > 10 | Cc1ccc(N/C(=N/C#N)N2CCN(c3cnc4ccccc4n3)CC2C(C)C)cc1 (stereo not drawn) [Example 1.16, N′-cyano-2-isopropyl-N-(4-methylphenyl)-4-(quinoxalin-2-yl)piperazine-1-carboximidamide] |
| > 10 | CC(C)C1CN(c2cnc3ccccc3n2)CCN1/C(=N\C#N)Nc1cccc(F)c1 (stereo not drawn) [Example 1.20, N′-cyano-N-(3-fluorophenyl)-2-isopropyl-4-(quinoxalin-2-yl)piperazine-1-carboximidamide] |
| > 10 | CC(C)C1CN(c2cnc3ccccc3n2)CCN1/C(=N\C#N)Nc1ccc(F)cc1 (stereo not drawn) [Example 1.23, N′-cyano-N-(4-fluorophenyl)-2-isopropyl-4-(quinoxalin-2-yl)piperazine-1-carboximidamide] |
| > 6.68 | CC(C)C1CN(c2cnc3ccccc3n2)CCN1/C(=N\C#N)Nc1ccc(C(F)(F)F)cc1 (stereo not drawn) [Example 1.24, N′-cyano-2-isopropyl-4-(quinoxalin-2-yl)-N-[4-(trifluoromethyl)phenyl]piperazine-1-carboximidamide] |
| > 7.29 | CC(C)C1CN(c2cnc3ccccc3n2)CCN1/C(=N\C#N)Nc1cccc(C(F)(F)F)c1 (stereo not drawn) [Example 1.25, N′-cyano-2-isopropyl-4-(quinoxalin-2-yl)-N-[3-(trifluoromethyl)phenyl]piperazine-1-carboximidamide] |
| > 10 | CC(C)c1ccccc1N/C(=N/C#N)N1CCN(c2cnc3ccccc3n2)CC1C(C)C (stereo not drawn) [Example 1.26, N′-cyano-2-isopropyl-N-(2-isopropylphenyl)-4-(quinoxalin-2-yl)piperazine-1-carboximidamide] |
| > 10 | CC(C)C1CN(c2cnc3ccccc3n2)CCN1/C(=N\C#N)Nc1ccccc1OC(F)(F)F (stereo not drawn) [Example 1.27, N′-cyano-2-isopropyl-4-(quinoxalin-2-yl)-N-[2-(trifluoromethoxy)phenyl]piperazine-1-carboximidamide] |
| > 3.16 | Cc1c(F)cccc1N/C(=N/C#N)N1CCN(c2cnc3ccccc3n2)CC1C(C)C (stereo not drawn) [Example 1.29, N′-cyano-N-(3-fluoro-2-methylphenyl)-2-isopropyl-4-(quinoxalin-2-yl)piperazine-1-carboximidamide] |
| > 10 | CC(C)C1CN(c2cnc3ccccc3n2)CCN1/C(=N\C#N)Nc1ccc(F)cc1Cl (stereo not drawn) [Example 1.30, N-(2-chloro-4-fluorophenyl)-N′-cyano-2-isopropyl-4-(quinoxalin-2-yl)piperazine-1-carboximidamide] |
| > 10 | Cc1cc(F)ccc1N/C(=N/C#N)N1CCN(c2cnc3ccccc3n2)CC1C(C)C (stereo not drawn) [Example 1.32, N′-cyano-N-(4-fluoro-2-methylphenyl)-2-isopropyl-4-(quinoxalin-2-yl)piperazine-1-carboximidamide] |
| > 10 | Cc1ccccc1CN/C(=N/C#N)N1CCN(c2cnc3ccccc3n2)CC1C(C)C (stereo not drawn) [Example 1.35, N′-cyano-2-isopropyl-N-(2-methylbenzyl)-4-(quinoxalin-2-yl)piperazine-1-carboximidamide] |
| > 10 | CC(C)CC1CN(c2cnc3ccccc3n2)CCN1/C(=N\C#N)Nc1ccccc1F (stereo not drawn) [Example 1.39, N′-cyano-N-(2-fluorophenyl)-2-isobutyl-4-(quinoxalin-2-yl)piperazine-1-carboximidamide] |

Same assay, conditions: human respiratory syncytial virus, HEp-2, 96 h, read-out: RSV EC50

| SMILES | EC50 [µM] |
| --- | --- |
| Cc1ccccc1N/C(=N/C#N)N1CCN(c2cnc3ccccc3n2)C[C@H]1C(C)C [Example 1.12, (2R)—N′-cyano-2-isopropyl-N-(2-methylphenyl)-4-(quinoxalin-2-yl)piperazine-1-carboximidamide trifluoroacetate] | > 32 |
